This passage reports MIC and log k results from publication PMC6259751, “Investigating Spectrum of Biological Activity of 4- and 5-Chloro-2-hydroxy-N-[2-(arylamino)-1-alkyl-2-oxoethyl]benzamides” (Molecules, 2011).

In data set [1] the test system is Enterococcus sp. J 14365/08. In words: In vitro antibacterial susceptibility testing (broth microdilution). Conditions: read-out: MIC EF. Background: Dilution methods test growth across graded concentrations, often in twofold steps.
The test system of data set [2] is Staphylococcus epidermidis H 6966/08. The data set is described as above. Conditions: read-out: MIC SE.
Data set [3] is described as follows: Lipophilicity determination by RP-HPLC (capacity factor k / log k). The settings on record: C18 column, MeOH 70% / H2O 30%, isocratic. In kind it is physicochemical. As for the experimental part: Hydrophobicities (log P/Clog P) of compounds 8 and 9 were calculated using two commercially available programs (ChemOffice Ultra 10.0 and ACD/LogP) and measured by means of RP-HPLC determination of capacity factors k with subsequent calculation of log k. The procedure was performed under isocratic conditions with methanol as an organic modifier in the mobile phase using an end-capped non-polar C18 stationary RP column. The results are shown in Table 1 and illustrated in Figure 1.
A Waters Alliance 2695 XE HPLC separation module and a Waters Photodiode Array Detector 2996 (Waters Corp., Milford, MA, USA) were used. A Symmetry® C18 5 μm, 4.6 × 250 mm, Part No. WAT054275 (Waters Corp., Milford, MA, USA) chromatographic column was used. The HPLC separation process was monitored by Empower™ 2 Chromatography Data Software, Waters 2009 (Waters Corp., Milford, MA, USA). A mixture of MeOH p.a. (70%) and H2O-HPLC – Mili-Q Grade (30%) was used as a mobile phase. The total flow of the column was 1.0 mL/min, injection volume, 30 μL, column temperature, 30 °C and sample temperature, 10 °C. The detection wavelength of 210 nm was chosen. The KI methanolic solution was used for the dead time (tD) determination. Retention times (tR) were measured in minutes. The capacity factors k were calculated using the Empower™ 2 Chromatography Data Software according to formula k = (tR - tD)/tD, where tR is the retention time of the solute, whereas tD denotes the dead time obtained using an unretained analyte. Log k, calculated from the capacity factor k, is used as the lipophilicity index converted to log P scale.

Data set [4] has as its system Mycobacterium kansasii MK CNCTC My 235/80. In words: In vitro antimycobacterial evaluation. It counts as cell-based. Conditions: IC90 value.
In data set [5] the test system is Trichophyton mentagrophytes 445. As to the kind of experiment: In vitro antifungal susceptibility testing (broth microdilution). It counts as cell-based. The settings on record: M38-A for moulds, IC50 value, read-out: MIC TM.
Data set [6] relates to Staphylococcus aureus CCM 4516/08. In words: In vitro antibacterial susceptibility testing (broth microdilution). Conditions: read-out: MIC SA.
Data set [7] concerns methicilin resistant Staphylococcus aureus H 5996/08. The description is as above.
A further data set deals with Candida tropicalis 156. In words: In vitro antifungal susceptibility testing (broth microdilution). In kind it is cell-based. Conditions: M27-A2 for yeasts, IC80 value.
Data set [8] concerns Mycobacterium avium MA CNCTC My 330/88. In words: In vitro antimycobacterial evaluation. Conditions: IC90 value. In kind it is cell-based.
Data set [9] concerns Mycobacterium tuberculosis MTB CNCTC My 331/88. As to the kind of experiment: In vitro antimycobacterial evaluation. It counts as cell-based. Conditions: IC90 value.

Converted amounts (≈) assume the structure as drawn. Where two headings read alike, the source gives them in different places.

For `CC(C)[C@@H](NC(=O)c1ccc(Cl)cc1O)C(=O)Nc1ccc(Cl)cc1` [9d], the MIC in [1] (SP.J14365/08, 24 h) is more than 500 µM; in [1] (SP.J14365/08, 48 h) it was more than 500 µM; in data set [2] (H6966/08, 24 h) it was more than 500 µM; in data set [2] (H6966/08, 48 h) it was more than 500 µM; in data set [4] (14h), 62.5 µM (≈ 23.8 µg/mL); in data set [4] (21h), 62.5 µM (≈ 23.8 µg/mL). For the same compound, the MIC is 7.81 µM (≈ 2.98 µg/mL) in data set [5] (72h); 7.81 µM (≈ 2.98 µg/mL) in data set [5] (120h); more than 500 µM in [6] (CCM4516, 24 h); more than 500 µM in [6] (CCM4516, 48 h); more than 500 µM in [7] (MRSA, 24 h, read-out: MIC MRSA); more than 500 µM in [7] (MRSA, 48 h, read-out: MIC MRSA). The MIC against Candida tropicalis 156 (24h) was more than 125 µM; with Candida tropicalis 156 (48h), more than 125 µM; in data set [8] (14h) it was 62.5 µM (≈ 23.8 µg/mL); in data set [8] (21h), 62.5 µM (≈ 23.8 µg/mL); in data set [9] (14h) it was 62.5 µM (≈ 23.8 µg/mL); in data set [9] (21h) it was 62.5 µM (≈ 23.8 µg/mL). The log k in [3] was determined as 0.6832.

Turning to `O=C(N[C@@H](Cc1ccccc1)C(=O)Nc1ccc(Cl)cc1)c1ccc(Cl)cc1O` [9e], the MIC in data set [1] (SP.J14365/08, 24 h) was more than 500 µM; in [1] (SP.J14365/08, 48 h) it was more than 500 µM; in data set [2] (H6966/08, 24 h) it was more than 250 µM; in data set [2] (H6966/08, 48 h), more than 250 µM; in data set [4] (14h) it was 32 µM (≈ 13.7 µg/mL); in data set [4] (21h) it was 62.5 µM (≈ 26.8 µg/mL). For the same compound, the MIC in [5] (72h) was 125 µM (≈ 53.7 µg/mL); in data set [5] (120h) it was 125 µM (≈ 53.7 µg/mL); in data set [6] (CCM4516, 24 h), more than 250 µM; in [6] (CCM4516, 48 h) it was more than 250 µM; in data set [7] (MRSA, 24 h, read-out: MIC MRSA) it was more than 250 µM; in [7] (MRSA, 48 h, read-out: MIC MRSA) it was more than 250 µM. Moreover, the MIC in the data set with Candida tropicalis 156 (24h) worked out at 125 µM (≈ 53.7 µg/mL); against Candida tropicalis 156 (48h) it was 125 µM (≈ 53.7 µg/mL); in [8] (14h), 32 µM (≈ 13.7 µg/mL); in [8] (21h), 62.5 µM (≈ 26.8 µg/mL); in data set [9] (14h), 32 µM (≈ 13.7 µg/mL); in data set [9] (21h), 32 µM (≈ 13.7 µg/mL). Besides, the log k in data set [3] is recorded as 0.7540.

As for `CC(C)[C@@H](NC(=O)c1cc(Cl)ccc1O)C(=O)Nc1ccc(Cl)cc1` [8j], the MIC in data set [1] (SP.J14365/08, 24 h) was found to be 250 µM (≈ 95.3 µg/mL); in [1] (SP.J14365/08, 48 h), 500 µM (≈ 191 µg/mL); in data set [2] (H6966/08, 24 h), 31.2 µM (≈ 11.9 µg/mL); in data set [2] (H6966/08, 48 h) it was 125 µM (≈ 47.7 µg/mL); in [4] (14h), 62.5 µM (≈ 23.8 µg/mL); in data set [4] (21h), 62.5 µM (≈ 23.8 µg/mL). In addition, the MIC is 62.5 µM (≈ 23.8 µg/mL) in [5] (72h); 62.5 µM (≈ 23.8 µg/mL) in data set [5] (120h); 7.81 µM (≈ 2.98 µg/mL) in [6] (CCM4516, 24 h); 7.81 µM (≈ 2.98 µg/mL) in [6] (CCM4516, 48 h); 7.81 µM (≈ 2.98 µg/mL) in data set [7] (MRSA, 24 h, read-out: MIC MRSA); 7.81 µM (≈ 2.98 µg/mL) in data set [7] (MRSA, 48 h, read-out: MIC MRSA). Moreover, the MIC in data set [7] (read-out: activity against methicillin-resistant Staphylococcus aureus (MIC)) is 7.81 µM (≈ 2.98 µg/mL); in the data set on Candida tropicalis 156 (24h), more than 125 µM; in the data set with Candida tropicalis 156 (48h), more than 125 µM; in data set [8] (14h), 62.5 µM (≈ 23.8 µg/mL); in [8] (21h) it was 62.5 µM (≈ 23.8 µg/mL); in data set [9] (14h) it was 32 µM (≈ 12.2 µg/mL). Further, in [9] (21h), inhibition of growth (MIC) required 32 µM (≈ 12.2 µg/mL). In [3], this compound showed a log k of 0.6125.

Regarding `CC(C)[C@@H](NC(=O)c1cc(Cl)ccc1O)C(=O)Nc1ccc(Cl)c(Cl)c1` [8p], the MIC was more than 500 µM in data set [1] (SP.J14365/08, 24 h); more than 500 µM in data set [1] (SP.J14365/08, 48 h); more than 500 µM in data set [2] (H6966/08, 24 h); more than 500 µM in [2] (H6966/08, 48 h); 32 µM (≈ 13.3 µg/mL) in data set [4] (14h); 62.5 µM (≈ 26 µg/mL) in data set [4] (21h). Also, the MIC was more than 125 µM in data set [5] (72h); more than 125 µM in [5] (120h); more than 500 µM in data set [6] (CCM4516, 24 h); more than 500 µM in data set [6] (CCM4516, 48 h); more than 500 µM in data set [7] (MRSA, 24 h, read-out: MIC MRSA); more than 500 µM in data set [7] (MRSA, 48 h, read-out: MIC MRSA). For the same compound, the MIC in the data set with Candida tropicalis 156 (24h) is more than 125 µM; against Candida tropicalis 156 (48h) it was more than 125 µM; in [8] (14h), 62.5 µM (≈ 26 µg/mL); in [8] (21h), 125 µM (≈ 52 µg/mL); in data set [9] (14h), 16 µM (≈ 6.65 µg/mL); in data set [9] (21h), 32 µM (≈ 13.3 µg/mL). Besides, the log k in [3] is listed as 0.8614.

One may read the MIC as the smallest concentration in the dilution series that meets the test's criterion for growth inhibition.
